Experimental data: patent US10689377B2 (Mirati Therapeutics, Inc., priority 2017, dated 2020)

Assays:
KRas G12C [1] = target: KRas G12C (Homo sapiens, UniProt P01116, C118S/C51S/C80L/G12C); assay: KRas G12C Modification Assay (LCMS detection of covalent adduct); format: binding
Summary of the method: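 Intact protein analysed by LC/MS with deconvolution; unmodified protein signal normalized to no-compound control and reported as percent of control (POC).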

KRas G12C [2] = target: KRas G12C (Homo sapiens, UniProt P01116, G12C); assay: Cellular inhibition of KRas G12C measured by Phospho-ERK in NCI-H358 cells; format: cell-based; details: pERK(Thr202/Tyr204) normalized with GAPDH, NCI-H358 cells, 3 hours; read-out: IC50
Summary of the method: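 Readout is pERK(Thr202/Tyr204) immunofluorescence normalized to GAPDH, expressed as percent of DMSO control and fitted with a 4-parameter curve for IC50. Attached NCI-H358 cells received compound for 3 hours in 0.5% DMSO, followed by fixation and methanol permeabilization.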

[3] = normalized percent of control, 5 μM concentration for 3 hours

SMILES | POC (KRas G12C [1]; [3]) | IC50 (KRas G12C [2]) [µM] | POC (KRas G12C [1]; 5 µM)
[2H]C([2H])=C([2H])C(=O)N1CCN(c2nc(OC[C@@H]3CCCN3C)nc3c2CCN(c2cccc4ccccc24)C3)C[C@@H]1CC#N [Example 475, 2-[(2S)-4-[2-[[(2S)-1-methylpyrrolidin-2-yl]methoxy]-7-(1-naphthyl)-6,8-dihydro-5H-pyrido[3,4-d]pyrimidin-4-yl]-1-(2,3,3-trideuterioprop-2-enoyl)piperazin-2-yl]acetonitrile] | C (“C”>50% POC) | 0.0001 to 1 | –
C=C(F)C(=O)N1CCN(c2nc(OC[C@@H]3C[C@@H](F)CN3C)nc3c2CCN(c2cccc4cccc(C)c24)C3)C[C@@H]1CC#N [Example 560, 2-[(2S)-4-[2-[[(2S,4R)-4-Fluoro-1-methyl-pyrrolidin-2-yl]methoxy]-7-(8-methyl-1-naphthyl)-6,8-dihydro-5H-pyrido[3,4-d]pyrimidin-4-yl]-1-(2-fluoroprop-2-enoyl)piperazin-2-yl]acetonitrile] | C (“C”>50% POC) | 0.0001 to 1 | –
C=C(F)C(=O)N1CCN(c2nc(OC[C@@H]3CCCN3C)nc3c2CCN(c2cccc4cccc(C5CC5)c24)C3)C[C@@H]1CC#N [Example 590, 2-((S)-4-(7-(8-Cyclopropylnaphthalen-1-yl)-2-(((S)-1-methylpyrrolidin-2-yl)methoxy)-5,6,7,8-tetrahydropyrido[3,4-d]pyrimidin-4-yl)-1-(2-fluoroacryloyl)piperazin-2-yl)acetonitrile] | B (“B”>25% POC-≤50% POC) | > 1 | –
C=CC(=O)N1CCN(c2nc(O[C@H](C)CN(C)CC)nc3c2CCN(c2cc(O)cc4ccccc24)C3)CC1 [Example 131, 1-[4-[2-[(1R)-2-[ethyl(methyl)amino]-1-methyl-ethoxy]-7-(3-hydroxy-1-naphthyl)-6,8-dihydro-5H-pyrido[3,4-d]pyrimidin-4-yl]piperazin-1-yl]prop-2-en-1-one] | C (“C”>50% POC) | 0.0001 to 1 | –
CN1CCC[C@H]1COc1nc2c(c(N3CCN(C(=O)/C=C/CN4CCC(F)(F)C4)[C@@H](CC#N)C3)n1)CCN(c1cccc(Cl)c1C(F)(F)F)C2 [Example 471, 2-[(2S)-4-[7-[3-chloro-2-(trifluoromethyl)phenyl]-2-[[(2S)-1-methylpyrrolidin-2-yl]methoxy]-6,8-dihydro-5H-pyrido[3,4-d]pyrimidin-4-yl]-1-[(E)-4-(3,3-difluoropyrrolidin-1-yl)but-2-enoyl]piperazin-2-yl]acetonitrile] | C (“C”>50% POC) | > 1 | –
C=CC(=O)N1CCN(c2nc(OC[C@@H]3CCCN3C)nc3c2CCN(c2ccccc2C(F)(F)F)C3)CC1CC#N (stereo partly drawn) [Example 210, 2-(1-acryloyl-4-(2-(((S)-1-methylpyrrolidin-2-yl)methoxy)-7-(2-(trifluoromethyl)phenyl)-5,6,7,8-tetrahydropyrido[3,4-d]pyrimidin-4-yl)piperazin-2-yl)acetonitrile] | C (“C”>50% POC) | 0.0001 to 1 | –
C=CC(=O)N1CCN(c2nc(OC[C@@H]3CCCN3C)nc3c2CCN(c2c(C(F)(F)F)ccc4[nH]ncc24)C3)CC1CC#N (stereo partly drawn) [Example 149, 2-[4-[2-[[(2S)-1-methylpyrrolidin-2-yl]methoxy]-7-[5-(trifluoromethyl)-1H-indazol-4-yl]-6,8-dihydro-5H-pyrido[3,4-d]pyrimidin-4-yl]-1-prop-2-enoyl-piperazin-2-yl]acetonitrile] | B (“B”>25% POC-≤50% POC) | 0.0001 to 1 | –
C=CC(=O)N1CCN(c2nc(OC[C@@H]3CCCN3C)nc3c2CCN(c2c(F)c(O)cc4ccccc24)C3)CC1 [Example 249, 1-[4-[7-(2-fluoro-3-hydroxy-1-naphthyl)-2-[[(2S)-1-methylpyrrolidin-2-yl]methoxy]-6,8-dihydro-5H-pyrido[3,4-d]pyrimidin-4-yl]piperazin-1-yl]prop-2-en-1-one] | C (“C”>50% POC) | 0.0001 to 1 | –
C=CC(=O)N1CCN(c2nc(OCCCN3CCOCC3)nc3c2CCN(c2c(F)c(O)cc4ccccc24)C3)CC1 [Example 165, 1-[4-[7-(2-fluoro-3-hydroxy-1-naphthyl)-2-(3-morpholinopropoxy)-6,8-dihydro-5H-pyrido[3,4-d]pyrimidin-4-yl]piperazin-1-yl]prop-2-en-1-one] | – | > 1 | C (key: “A”≤25% POC; “B”>25% POC-≤50% POC; “C”>50% POC)
C=CC(=O)N1CCN(c2nc(OCCCN3CCOCC3)nc3c2CCN(c2cc(O)cc4cc(C)[nH]c24)C3)CC1 [Example 167, 1-(4-(7-(5-hydroxy-2-methyl-1H-indol-7-yl)-2-(3-morpholinopropoxy)-5,6,7,8-tetrahydropyrido[3,4-d]pyrimidin-4-yl)piperazin-1-yl)prop-2-en-1-one] | B (“B”>25% POC-≤50% POC) | > 1 | –
C=CC(=O)N1CCN(c2nc(OC[C@H]3CCCN3C)nc3c2CCN(c2cccc4ccccc24)C3)C[C@@H]1CC#N [Example 267, 2-((S)-1-acryloyl-4-(2-(((R)-1-methylpyrrolidin-2-yl)methoxy)-7-(naphthalen-1-yl)-5,6,7,8-tetrahydropyrido[3,4-d]pyrimidin-4-yl)piperazin-2-yl)acetonitrile] | – | 0.0001 to 1 | C (key: “A”≤25% POC; “B”>25% POC-≤50% POC; “C”>50% POC)

Now from value to compound, other results behind:

POC (KRas G12C [1]; [3]) | IC50 (KRas G12C [2]) [µM] | SMILES | POC (KRas G12C [1]; 5 µM)
C (“C”>50% POC) | 0.0001 to 1 | C=C(F)C(=O)N1CCN(c2nc(OC[C@@H]3CCCN3CCF)nc3c2CCN(c2cccc4cccc(Cl)c24)C3)C[C@@H]1CC#N [Example 598, 2-((S)-4-(7-(8-Chloronaphthalen-1-yl)-2-(((S)-1-(2-fluoroethyl)pyrrolidin-2-yl)methoxy)-5,6,7,8-tetrahydropyrido[3,4-d]pyrimidin-4-yl)-1-(2-fluoroacryloyl)piperazin-2-yl)acetonitrile] | –
C (“C”>50% POC) | 0.0001 to 1 | Cc1cccc2cccc(N3CCc4c(nc(OC[C@@H]5CC(F)(F)CN5C)nc4N4CCN(C(=O)/C=C/CF)[C@@H](CC#N)C4)C3)c12 [Example 529, 2-((S)-4-(2-(((S)-4,4-difluoro-1-methylpyrrolidin-2-yl)methoxy)-7-(8-methylnaphthalen-1-yl)-5,6,7,8-tetrahydropyrido[3,4-d]pyrimidin-4-yl)-1-((E)-4-fluorobut-2-enoyl)piperazin-2-yl)acetonitrile] | –
C (“C”>50% POC) | 0.0001 to 1 | C=C(F)C(=O)N1CCN(c2nc(OC[C@@H]3C[C@@H](F)CN3C)nc3c2CCN(c2cccc4cccc(Cl)c24)C3)C[C@@H]1CC#N [Example 574, 2-[(2S)-4-[7-(8-Chloro-1-naphthyl)-2-[[(2S,4R)-4-fluoro-1-methyl-pyrrolidin-2-yl]methoxy]-6,8-dihydro-5H-pyrido[3,4-d]pyrimidin-4-yl]-1-(2-fluoroprop-2-enoyl)piperazin-2-yl] acetonitrile] | –
C (“C”>50% POC) | 0.0001 to 1 | N#CC[C@H]1CN(c2nc(OCCCN3C[C@@H]4C[C@H]3CO4)nc3c2CCN(c2cccc4cccc(Cl)c24)C3)CCN1C(=O)/C=C/CF [Example 585, 2-((S)-4-(2-(3-((1S,4S)-2-oxa-5-azabicyclo[2.2.1]heptan-5-yl)propoxy)-7-(8-chloronaphthalen-1-yl)-5,6,7,8-tetrahydropyrido[3,4-d]pyrimidin-4-yl)-1-((E)-4-fluorobut-2-enoyl)piperazin-2-yl)acetonitrile] | –
C (“C”>50% POC) | > 1 | C=C(F)C(=O)N1CCN(c2nc(SC[C@@H]3CCCN3C)nc3c2CCN(c2cccc4cccc(C)c24)C3)C[C@@H]1CC#N [Example 599, 2-((S)-1-(2-Fluoroacryloyl)-4-(7-(8-methylnaphthalen-1-yl)-2-((((S)-1-methylpyrrolidin-2-yl)methyl)thio)-5,6,7,8-tetrahydropyrido [3,4-d]pyrimidin-4-yl)piperazin-2-yl)acetonitrile] | –
C (“C”>50% POC) | 0.0001 to 1 | C=C(F)C(=O)N1CCN(c2nc(OC[C@@H]3CCCN3C)nc3c2CCN(c2cncc4cccc(Cl)c24)C3)C[C@@H]1CC#N [Example 593, 2-((S)-4-(7-(5-Chloroisoquinolin-4-yl)-2-(((S)-1-methylpyrrolidin-2-yl)methoxy)-5,6,7,8-tetrahydropyrido[3,4-d]pyrimidin-4-yl)-1-(2-fluoroacryloyl)piperazin-2-yl)acetonitrile] | –
C (“C”>50% POC) | 0.0001 to 1 | C=C(F)C(=O)N1CCN(c2nc(OC[C@@H]3CCCN3)nc3c2CCN(c2cccc4cccc(Cl)c24)C3)C[C@@H]1CC#N [Example 571, 2-((S)-4-(7-(8-Chloronaphthalen-1-yl)-2-((S)-pyrrolidin-2-ylmethoxy)-5,6,7,8-tetrahydropyrido[3,4-d]pyrimidin-4-yl)-1-(2-fluoroacryloyl)piperazin-2-yl)acetonitrile] | –
C (“C”>50% POC) | 0.0001 to 1 | CO[C@@H]1C[C@@H](COc2nc3c(c(N4CCN(C(=O)/C=C/CF)[C@@H](CC#N)C4)n2)CCN(c2cccc4cccc(Cl)c24)C3)N(C)C1 [Example 583, 2-[(2S)-4-[7-(8-chloro-1-naphthyl)-2-[[(2S,4R)-4-methoxy-1-methyl-pyrrolidin-2-yl]methoxy]-6,8-dihydro-5H-pyrido[3,4-d]pyrimidin-4-yl]-1-[(E)-4-fluorobut-2-enoyl]piperazin-2-yl]acetonitrile] | –
C (“C”>50% POC) | 0.0001 to 1 | CN1CCC[C@@H]1COc1nc2c(c(N3CCN(C(=O)/C=C/CF)[C@@H](CC#N)C3)n1)CCN(c1cccc3cccc(Cl)c13)C2 [Example 586, 2-[(2S)-4-[7-(8-chloro-1-naphthyl)-2-[[(2R)-1-methylpyrrolidin-2-yl]methoxy]-6,8-dihydro-5H-pyrido[3,4-d]pyrimidin-4-yl]-1-[(E)-4-fluorobut-2-enoyl]piperazin-2-yl]acetonitrile] | –
